Consider 32 compounds from BindingDB's records for doi:10.1016/j.bioorg.2017.02.010 (Charles University, 2017).

Where “and” joins values, the source holds several entries; their conditions need not be identical. Equal entries are not always repeated.

Test [1] concerns the target Carboxylic ester hydrolase (Equus caballus, UniProt Q9N1N9). The test can be described thus: Cholinesterase Inhibition Assay.
In a further test the target is Acetylcholinesterase (Electrophorus electricus, UniProt O42275). The test can be described thus: Cholinesterase Inhibition Assay.
Sequence of Acetylcholinesterase (O42275 whole entry): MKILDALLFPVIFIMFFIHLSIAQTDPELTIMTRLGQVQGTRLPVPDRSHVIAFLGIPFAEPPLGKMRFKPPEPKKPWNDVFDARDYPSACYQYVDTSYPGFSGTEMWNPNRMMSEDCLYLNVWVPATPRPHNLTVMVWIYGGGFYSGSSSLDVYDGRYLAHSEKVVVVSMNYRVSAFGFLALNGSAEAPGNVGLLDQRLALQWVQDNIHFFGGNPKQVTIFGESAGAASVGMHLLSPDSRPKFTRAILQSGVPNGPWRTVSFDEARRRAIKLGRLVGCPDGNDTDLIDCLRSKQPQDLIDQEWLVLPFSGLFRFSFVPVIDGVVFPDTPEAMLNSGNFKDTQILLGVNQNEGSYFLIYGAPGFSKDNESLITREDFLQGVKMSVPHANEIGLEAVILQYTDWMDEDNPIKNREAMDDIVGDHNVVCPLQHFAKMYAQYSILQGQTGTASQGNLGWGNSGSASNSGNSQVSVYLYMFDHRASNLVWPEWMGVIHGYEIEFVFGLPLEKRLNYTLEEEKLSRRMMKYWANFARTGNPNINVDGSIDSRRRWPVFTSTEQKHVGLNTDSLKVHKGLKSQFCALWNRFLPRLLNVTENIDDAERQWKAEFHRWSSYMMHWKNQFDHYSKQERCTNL

Sequence of Carboxylic ester hydrolase (Q9N1N9 whole entry): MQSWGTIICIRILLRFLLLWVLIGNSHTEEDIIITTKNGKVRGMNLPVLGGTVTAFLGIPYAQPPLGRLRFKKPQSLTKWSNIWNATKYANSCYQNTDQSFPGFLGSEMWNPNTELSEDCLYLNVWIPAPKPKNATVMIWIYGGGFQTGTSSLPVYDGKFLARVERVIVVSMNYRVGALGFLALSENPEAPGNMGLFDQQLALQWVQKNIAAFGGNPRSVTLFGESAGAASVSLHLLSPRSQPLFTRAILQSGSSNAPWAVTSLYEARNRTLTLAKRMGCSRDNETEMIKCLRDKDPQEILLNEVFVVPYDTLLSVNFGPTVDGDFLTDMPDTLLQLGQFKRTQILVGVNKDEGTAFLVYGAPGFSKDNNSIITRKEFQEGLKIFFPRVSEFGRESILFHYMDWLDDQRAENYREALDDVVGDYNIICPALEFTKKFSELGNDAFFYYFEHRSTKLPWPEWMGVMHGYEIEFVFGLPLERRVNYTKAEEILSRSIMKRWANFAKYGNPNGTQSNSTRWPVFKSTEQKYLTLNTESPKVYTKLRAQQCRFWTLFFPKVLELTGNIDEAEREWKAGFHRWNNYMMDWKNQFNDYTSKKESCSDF

As for `CC(=O)NC(Cc1ccccc1F)C(=O)Nc1ccc(C)cc1` (centres undefined) [2-Acetamido-3-(2-fluorophenyl)-N-(4-methylphenyl)propanamide (1b)], the half-inhibitory concentration (IC50) was 113 µM in test [1] and 69 µM against Acetylcholinesterase.
In the case of `CC(=O)NC(Cc1ccccc1F)C(=O)Nc1ccc([N+](=O)[O-])cc1` (centres undefined) [2-Acetamido-3-(2-fluorophenyl)-N-(4-nitrophenyl)propanamide (1c)], the figures for the IC50 (in test [1]; at Acetylcholinesterase) were 154 µM and 64.4 µM, respectively.
On to `CC(=O)NC(Cc1ccccc1F)C(=O)Nc1ccc(C(F)(F)F)cc1` (centres undefined) [2-Acetamido-3-(2-fluorophenyl)-N-[4-(trifluoromethyl)phenyl]propanamide (1d)], for which the figures for the IC50 (in test [1]; against Acetylcholinesterase) were 218 µM and 73.4 µM, respectively.
With `CC(=O)NC(Cc1ccccc1F)C(=O)Nc1ccccc1` (centres undefined) [2-Acetamido-3-(2-fluorophenyl)-N-phenylpropanamide (1e)], the concentration for half-maximal inhibition (IC50) in test [1] is 121 µM; at Acetylcholinesterase, 86.3 µM.
`CC(=O)NC(Cc1cccc(F)c1)C(=O)Nc1ccc(C)cc1` (centres undefined) [2-Acetamido-3-(3-fluorophenyl)-N-(4-methylphenyl)propanamide (2b)]: the IC50 stood at 143 µM in test [1] and 68.7 µM on Acetylcholinesterase.
Consider `CC(=O)NC(Cc1cccc(F)c1)C(=O)Nc1ccc([N+](=O)[O-])cc1` (centres undefined) [2-Acetamido-3-(3-fluorophenyl)-N-(4-nitrophenyl)propanamide (2c)], for which the IC50 in test [1] worked out at 120 µM; on Acetylcholinesterase, 70.6 µM.
Consider `CC(=O)NC(Cc1cccc(F)c1)C(=O)Nc1ccc(C(F)(F)F)cc1` (centres undefined) [2-Acetamido-3-(3-fluorophenyl)-N-[4-(trifluoromethyl)phenyl]propanamide (2d)], for which the figures for the IC50 (in test [1]; against Acetylcholinesterase) were 164 µM and 79.4 µM, respectively.
Take `CC(=O)NC(Cc1cccc(F)c1)C(=O)Nc1ccccc1` (centres undefined) [2-Acetamido-3-(3-fluorophenyl)-N-phenylpropanamide (2e)]: the IC50 in test [1] stood at 157 µM; on Acetylcholinesterase it was 86.5 µM.
In the case of `CC(=O)NC(Cc1ccc(F)cc1)C(=O)Nc1ccc(C)cc1` (centres undefined) [2-Acetamido-3-(4-fluorophenyl)-N-(4-methylphenyl)propanamide (3b)], the half-inhibitory concentration (IC50) in test [1] was 154 µM; against Acetylcholinesterase it was 69 µM.
For `CC(=O)NC(Cc1ccc(F)cc1)C(=O)Nc1ccc([N+](=O)[O-])cc1` (centres undefined) [2-Acetamido-3-(4-fluorophenyl)-N-(4-nitrophenyl)propanamide (3c)], the figures for the 50% inhibitory concentration (IC50) (in test [1]; on Acetylcholinesterase) were 162 µM and 66 µM, respectively.
For the compound `CC(=O)NC(Cc1ccc(F)cc1)C(=O)Nc1ccc(C(F)(F)F)cc1` (centres undefined) [2-Acetamido-3-(4-fluorophenyl)-N-[4-(trifluoromethyl)phenyl]propanamide (3d)], the IC50 in test [1] came to 289 µM; at Acetylcholinesterase it was 84.1 µM.
For `CC(=O)NC(Cc1ccc(F)cc1)C(=O)Nc1ccccc1` (centres undefined) [2-Acetamido-3-(4-fluorophenyl)-N-phenylpropanamide (3e)], the IC50 in test [1] stood at 89.8 µM; against Acetylcholinesterase, 99.8 µM.
`CC(=O)NC(Cc1ccccc1F)C(=O)Nc1ccc(Cl)cc1` (centres undefined) [2-Acetamido-N-(4-chlorophenyl)-3-(2-fluorophenyl)propanamide (1a)]: the half-inhibitory concentration (IC50) in test [1] is 227 µM; on Acetylcholinesterase, 76.5 µM.
For `CC(=O)NC(Cc1cccc(F)c1)C(=O)Nc1ccc(Cl)cc1` (centres undefined) [2-Acetamido-N-(4-chlorophenyl)-3-(3-fluorophenyl)propanamide (2a)], the IC50 in test [1] amounted to 170 µM; on Acetylcholinesterase it was 70.7 µM.
Regarding `CC(=O)NC(Cc1ccc(F)cc1)C(=O)Nc1ccc(Cl)cc1` (centres undefined) [2-Acetamido-N-(4-chlorophenyl)-3-(4-fluorophenyl)propanamide (3a)], the IC50 amounted to 235 µM in test [1] and 97 µM at Acetylcholinesterase.
The corresponding values for `CC(=O)NC(Cc1ccccc1F)C(=O)O` (centres undefined) [2-acetamido-3-(2-fluorophenyl)propanoic acid (1)] are 217 µM and 64.2 µM.
Take `CC(=O)NC(Cc1cccc(F)c1)C(=O)O` (centres undefined) [2-acetamido-3-(3-fluorophenyl)propanoic acid (2)]: the IC50 turned out to be 210 µM in test [1] and 63.6 µM on Acetylcholinesterase.
On to `CC(=O)NC(Cc1ccc(F)cc1)C(=O)O` (centres undefined) [2-acetamido-3-(4-fluorophenyl)propanoic acid (3)], for which the IC50 came to 227 µM in test [1] and 63.7 µM at Acetylcholinesterase.
Turning to `CC(=O)NC(Cc1ccccc1F)C(=O)Oc1ccc(C(F)(F)F)cc1` (centres undefined) [4-(Trifluoromethyl)phenyl 2-acetamido-3-(2-fluorophenyl)propanoate (1i)], the IC50 is 37.4 µM and 59.8 µM in test [1]; 68 µM and 62.9 µM against Acetylcholinesterase.
Turning to `CC(=O)NC(Cc1cccc(F)c1)C(=O)Oc1ccc(C(F)(F)F)cc1` (centres undefined) [4-(Trifluoromethyl)phenyl 2-acetamido-3-(3-fluorophenyl)propanoate (2i)], the IC50 in test [1] turned out to be 34 µM; at Acetylcholinesterase it was 62.2 µM.
The corresponding values for `CC(=O)NC(Cc1ccccc1F)C(=O)Oc1ccc(Cl)cc1` (centres undefined) [4-Chlorophenyl 2-acetamido-3-(2-fluorophenyl)propanoate (1f)] are 82.2 µM and 104 µM.
On to `CC(=O)NC(Cc1cccc(F)c1)C(=O)Oc1ccc(Cl)cc1` (centres undefined) [4-Chlorophenyl 2-acetamido-3-(3-fluorophenyl)propanoate (2f)], for which the half-inhibitory concentration (IC50) in test [1] was 52.7 µM; on Acetylcholinesterase, 115 µM.
The corresponding values for `CC(=O)NC(Cc1ccc(F)cc1)C(=O)Oc1ccc(Cl)cc1` (centres undefined) [4-Chlorophenyl 2-acetamido-3-(4-fluorophenyl)propanoate (3f)] are 59.1 µM and 131 µM.
The corresponding values for `CC(=O)NC(Cc1ccccc1F)C(=O)Oc1ccc(C)cc1` (centres undefined) [4-Methylphenyl 2-acetamido-3-(2-fluorophenyl)propanoate (1g)] are 85.4 µM and 57.9 µM.
For the compound `CC(=O)NC(Cc1cccc(F)c1)C(=O)Oc1ccc(C)cc1` (centres undefined) [4-Methylphenyl 2-acetamido-3-(3-fluorophenyl)propanoate (2g)], the IC50 in test [1] was 90.9 µM; against Acetylcholinesterase, 68.5 µM.
For the compound `CC(=O)NC(Cc1ccc(F)cc1)C(=O)Oc1ccc(C)cc1` (centres undefined) [4-Methylphenyl 2-acetamido-3-(4-fluorophenyl)propanoate (3g)], the IC50 in test [1] turned out to be 83.3 µM; against Acetylcholinesterase, 73.3 µM.
`CC(=O)NC(Cc1ccccc1F)C(=O)Oc1ccc([N+](=O)[O-])cc1` (centres undefined) [4-Nitrophenyl 2-acetamido-3-(2-fluorophenyl)propanoate (1h)]: the IC50 amounted to 77.5 µM in test [1] and 76.7 µM at Acetylcholinesterase.
Consider `CC(=O)NC(Cc1cccc(F)c1)C(=O)Oc1ccc([N+](=O)[O-])cc1` (centres undefined) [4-Nitrophenyl 2-acetamido-3-(3-fluorophenyl)propanoate (2h)], for which the figures for the IC50 (in test [1]; on Acetylcholinesterase) were 142 µM and 74.3 µM, respectively.
The corresponding values for `CC(=O)NC(Cc1ccc(F)cc1)C(=O)Oc1ccc([N+](=O)[O-])cc1` (centres undefined) [4-Nitrophenyl 2-acetamido-3-(4-fluorophenyl)propanoate (3h)] are 126 µM and 60 µM.
The corresponding values for `CC(=O)NC(Cc1ccccc1F)C(=O)Oc1ccccc1` (centres undefined) [Phenyl 2-acetamido-3-(2-fluorophenyl)propanoate (1j)] are 30 µM and 79.2 µM.
For `CC(=O)NC(Cc1cccc(F)c1)C(=O)Oc1ccccc1` (centres undefined) [Phenyl 2-acetamido-3-(3-fluorophenyl)propanoate (2j)], the IC50 in test [1] turned out to be 53.7 µM; against Acetylcholinesterase, 87.8 µM.
With `CC(=O)NC(Cc1ccc(F)cc1)C(=O)Oc1ccccc1` (centres undefined) [Phenyl 2-acetamido-3-(4-fluorophenyl)propanoate (3j)], the 50% inhibitory concentration (IC50) came to 8.25 µM in test [1] and 98.3 µM at Acetylcholinesterase.
